The subject of one assay is Uncinula necator. The experiment in a line: Green house: control of powdery mildew on grape caused by Uncinula necator (UNCINE P7). The class given is in vivo. The following applies: grape plants sprayed, inoculated 7 days later, assessed after 22 days. The protocol: Control of Powdery Mildew on Grape Caused by Uncinula necator ([…]7) Grape cuttings were grown in pots to the 4 to 5 leaf stage. These plants were sprayed to run-off with a spray solution, containing the concentration of active ingredient or their mixture mentioned in the table below. Seven days later the treated plants were inoculated with spores of Uncinula necator by shaking heavily infested stock plants over the treated pots. After cultivation in the greenhouse for 22 days at 21-23° C. and a relative humidity between 40 to 70% the extent of fungal attack on the leaves was visually assessed as % diseased leaf area. The disease ratings were converted into efficacies. […] The expected efficacies of active compound mixtures were determined using Colby's formula [R. S. Colby, “Calculating synergistic and antagonistic responses of herbicide combinations”, Weeds 15, 20-22 (1967)] and compared with the observed efficacies.

A further assay deals with Plasmopara viticola. In words: Green house: fungicidal control of grape downy mildew caused by Plasmopara viticola (PLASVI P4). The following applies: grape plants sprayed, inoculated after four days. In kind it is in vivo. On the procedure: Fungicidal Control of Grape Downy Mildew Caused by Plasmopara viticola […]4) Grape cuttings were grown in pots to the 4 to 5 leaf stage. These plants were sprayed to run-off with a spray solution, containing the concentration of active ingredient or their mixture mentioned in the table below. The plants were allowed to air-dry and cultivated in a greenhouse for four days. Then they were inoculated with an aqueous spore suspension of Plasmopara viticola by spraying it at the lower leaf-side. Then the trial plants were immediately transferred for 24 h to a humid chamber with 22-24° C. and a and a saturated relative humidity. For a period of 5 days, cultivation followed in a greenhouse at 20-25° C. and a relative humidity about 50-80%. To stimulate the outbreak of the disease symptoms, the plants were transferred to a humid chamber again for 24 hours. Then the extent of fungal attack on the lower leaf surface was visually assessed as % diseased leaf area. The disease ratings were converted into efficacies. […] The expected efficacies of active compound mixtures were determined using Colby's formula [R. S. Colby, “Calculating synergistic and antagonistic responses of herbicide combinations”, Weeds 15, 20-22 (1967)] and compared with the observed efficacies.

Where [1] appears, read: application rate 5 g/ha, 0 = as untreated, 100 = not infected.

For `Cn1cc(C(=O)Nc2ccccc2-c2cc(F)c(F)c(F)c2)c(C(F)F)n1` [II-6, fluxapyroxad], in the assay on Uncinula necator (application rate 0.5 g/ha), the Observed efficacy is on record as 52.

For the molecule `CC(O)(Cn1cncn1)c1ccc(Oc2ccc(Cl)cc2)cc1C(F)(F)F` (centres unmarked) [I, mefentrifluconazole], the results for the Observed efficacy in the assay with Plasmopara viticola (application rate 1 g/ha), in the assay with Plasmopara viticola (setting [1]) and in the assay with Uncinula necator (setting [1]) were 2, 1 and 72, respectively.

On to `Cc1cc(C(F)(F)F)nn1CC(=O)N1CCC(c2nc(C3=NOC(c4c(F)cccc4F)C3)cs2)CC1` (centres unmarked) [II-9, oxathiapiprolin], for which, in the assay on Plasmopara viticola (application rate 0.1 g/ha), the Observed efficacy came out at 18.

For the origin of these results see patent US20220007646A1, “METHOD TO CONTROL A PHYTHOPATOGENIC FUNGI SELECTED FROM UNCINULA NECATOR, PLASMOPARA VITICOLA AND GLOEOSPORIUM AMPELOPHAGUM IN GRAPES BY COMPOSITIONS COMPRISING MEFENTRIFLUCONAZOLE” (BASF AGRO B.V., priority 2018, published 2022).
